Measurements as given in PubChem BioAssay AID2749 (The Scripps Research Institute Molecular Screening Center, 2010).
Activity calls are given as the source filed them. The rule behind the calls is not given here.

Test system: IEC-6 rat intestinal epithelial cells, cytotoxicity, luminescence
Test: cytotoxicity in IEC-6 cells, late-stage follow-up, cytotoxicity control for KLF5 inhibitor project, cell-based, luminescence, dose response (AID 2749)

Compound | IC50
Cc1ccc2nc(NC(=O)CCCc3nc4ccccc4s3)sc2c1 | > 39.8 µM (inactive)
O=C(NCCc1ccccc1F)c1ccc2c(c1)OCCO2 | > 39.8 µM (inactive)
CN1CCN(c2ccc(-c3ccc4ccccc4n3)cc2)CC1 | 16.2 µM (inactive)
c1ccc(-c2ccc(-c3nc(-c4ccccn4)no3)cc2)cc1 | 14.2 µM (inactive)
CC(C)(C)c1ccc(-c2noc(CCC(=O)Nc3cccnc3)n2)cc1 | > 39.8 µM (inactive)
CCOC(=O)c1sc(NC(=O)c2cc3ccccc3o2)nc1C | > 39.8 µM (inactive)
COC(=O)c1ccc2nc(Nc3nc4ccc(F)cc4s3)sc2c1 | > 39.8 µM (inactive)
CC(C)(C)C(=O)Nc1cc2nn(-c3ccccc3)nc2cc1Cl | > 39.8 µM (inactive)
CCOC(=O)c1sc(NC(=O)c2cc3c(s2)CCC(C)C3)nc1C (centres undefined) | > 39.8 µM (inactive)
CN(C(=O)COC(=O)/C=C/c1cccc([N+](=O)[O-])c1)C1CCS(=O)(=O)C1 (centres undefined) | 34.8 µM (inactive)
COc1ccc(C(=O)Nc2ccccc2C(=O)NN=Cc2ccc(O)c(OC)c2)cc1 | > 39.8 µM (inactive)
CCOC(=O)c1sc(NC(=O)c2ccc3ncsc3c2)nc1C | > 39.8 µM (inactive)
CCCc1ccc(-c2ccc(/C=C/C(=O)O)cc2)nc1 | > 39.8 µM (inactive)
COc1ccc(OCc2cccc(C(=O)Nn3cc([N+](=O)[O-])cn3)c2)cc1 | > 39.8 µM (inactive)
O=C(NCCc1ccccc1)c1ccc2c(c1)OCCCO2 | > 39.8 µM (inactive)
CC(C)(C)c1ccc(C(=O)O/N=C(\N)c2ccccn2)cc1 | 25.5 µM (inactive)
CCCc1ccc(C(=O)O/N=C(\N)c2ccccn2)cc1 | > 39.8 µM (inactive)
COc1cccc(C=NNc2ccc(C(=O)O)cc2)c1O | > 39.8 µM (inactive)
Cc1cc(C(=O)CN2C(=O)c3ccccc3S2(=O)=O)c(C)n1CC1CCCO1 (centres undefined) | > 39.8 µM (inactive)
